Test results from patent US20090062243A1, “Lupane-Type Triterpenoids Modified at 30-Position and Analogues Thereof” (ADVANCED LIFE SCIENCES, INC., priority 2007, published 2009).

How the values were obtained:
A-375 (melanoma) = assay: MTS cell viability assay, A-375; type: cell-based; settings: Homo sapiens, A-375, cells incubated 72 h
Method: (§1) Cells were plated, the evening before treatment, for each treatment on 96-well plates (1×10^4 cells/well) in 100 μL volume per well. Analog solutions were prepared by diluting each test compound in DSMO (10 mM) with the appropriate cell growth media for each individual cell line, or in “Universal Media” if several cell lines were to be assayed in parallel, immediately prior to cell treatment. Universal Media consisted of 5 mL sodium pyruvate (100× liquid stock, MediaTech), 5 mL glucose (100×, 45% liquid stock, MediaTech), 5 mL Penicillin/Streptomycin (100× liquid stock, MediaTech), 10 mL sodium bicarbonate (50× liquid stock, MediaTech), 25 mL Fetal Calf Serum, 1.25 mL insulin (4 mg/mL, Gibco) and […] RPMI media with 2 mM L-glutamine for a total volume of 500 mL.
(§2) Cells were treated by aspirating plating media from each well and adding 80 μL of betulinic acid (control) or each analog solution in serial dilutions to the adherent cells. All treatments were performed in triplicate. Growth media (80 μL) was added to 3 blank wells (no cells) to measure background from the growth media. Growth media alone (no DMSO or test compound) was added to 3 wells containing cells to measure the baseline MTS activity. Vehicle (DMSO) control in serial dilutions, added to cells, was also included to monitor basal toxicity from DMSO. Cells were incubated at 37° C. for 72 h, or 120 h for the OVCAR cell lines. MTS reagent (per 96-well plate) were prepared by combining 2 mL of MTS working solution (Cell Titer AQueous Non-Radioactive Cell Proliferation Assay, Promega, cat#G1112), 100 μL of 0.92 mg/mL phenazine methosulfate/Dulbecco's PBS and 2.1 mL growth media. MTS reagent (40 μL) were added to each well and incubated at 37° C. for 1.5 to 4 h. Plates were gently shaken by hand until solution in each well appeared homogenous. Absorbances at 490 nm were measured on a Wallac Victor II plate reader at multiple time points following the addition of MTS reagent for each plate. Triplicate absorbance (490 nm) measurements were averaged following background (no cell) subtraction for each drug concentration. Percent Cell Viability was calculated for each drug concentration using the following equation:
(§3) {[Absorbance(analog treated)]/[Absorbance(DMSO treated)]}×100%
(§4) Cytotoxicity dose response for the triterpenoid derivatives synthesized in SK-MEL-2 (melanoma), A-375 (melanoma), Daoy (glioblastoma), LN-229 (glioblastoma), OVCAR-3 (ovarian carcinoma), HT-29 (colon carcinoma), MCF-7 (breast carcinoma) cell lines using the standard MTS assay is summarized in Table 1. In Table 1, compounds 22a-d and compounds 23a-c refer to structures 22 and 23 in Scheme 5, respectively. Compounds 24aa-an and 24ba-bq refer to structure 24 in Scheme 6. Compounds 26a-e refer to structure 26 in Scheme 6. Compounds 36a-c refer to structure 36 in Scheme 10.

SK-MEL-2 (melanoma) = assay: MTS cell viability assay, SK-MEL-2; type: cell-based; settings: Homo sapiens, SK-MEL-2, cells incubated 72 h
Method: as §1, §2, §3, §4

Daoy = assay: MTS cell viability assay, Daoy; type: cell-based; settings: Homo sapiens, Daoy, cells incubated 72 h
Method: as §1, §2, §3, §4

CEM = assay: MTS cell viability assay, CEM; type: cell-based; settings: Homo sapiens, CCRF-CEM, cells incubated 72 h
Method: as §1, §2, §3

[1] = system: OVCAR-3 (ovarian carcinoma); assay: MTS cell viability assay, OVCAR-3; type: cell-based; settings: Homo sapiens, OVCAR-3, 120 h for the OVCAR cell lines
Method: as §1, §2, §3, §4

LN-229 (glioblastoma) = assay: MTS cell viability assay, LN-229; type: cell-based; settings: Homo sapiens, LN-229, cells incubated 72 h
Method: as §1, §2, §3, §4

HT-29 (colon carcinoma) = assay: MTS cell viability assay, HT-29; type: cell-based; settings: Homo sapiens, HT-29, cells incubated 72 h
Method: as §1, §2, §3, §4

MCF-7 (breast carcinoma) = assay: MTS cell viability assay, MCF-7; type: cell-based; settings: Homo sapiens, MCF7, cells incubated 72 h
Method: as §1, §2, §3, §4

H-146 = assay: MTS cell viability assay, H-146; type: cell-based; settings: Homo sapiens, NCI-H146, cells incubated 72 h
Method: as §1, §2, §3

With `C=C(CO)[C@@H]1CC[C@]2(CO)CC[C@]3(C)[C@H](CC[C@@H]4[C@@]5(C)CCC(=O)C(C)(C)[C@@H]5CC[C@]43C)[C@@H]12` [Compound 7a] the IC50 (A-375 (melanoma)) was 40 µM, the IC50 (SK-MEL-2 (melanoma)) was > 75 µM and the IC50 (Daoy) was > 75 µM. The IC50 (CEM) was 45 µM, the IC50 [1] was 43 µM and the IC50 (LN-229 (glioblastoma)) was > 75 µM. The IC50 (HT-29 (colon carcinoma)) was 44 µM, the IC50 (MCF-7 (breast carcinoma)) was 43 µM and the IC50 (H-146) was 60 µM.

With `C=C(CO)[C@@H]1CC[C@]2(CO)CC[C@]3(C)[C@H](CC[C@@H]4[C@@]5(C)CCC(N)C(C)(C)[C@@H]5CC[C@]43C)[C@@H]12` (some centres unmarked) [Compound 24ab] the IC50 (A-375 (melanoma)) was 6 µM, the melting point was 189 to 199 °C and the IC50 (SK-MEL-2 (melanoma)) was 34 µM. It also gave an IC50 (Daoy) of 31 µM, an IC50 [1] of 14 µM and an IC50 (LN-229 (glioblastoma)) of 17 µM. The IC50 (HT-29 (colon carcinoma)) was 17 µM and the IC50 (MCF-7 (breast carcinoma)) was 15 µM.

In the case of `C=C(CO)[C@@H]1CC[C@]2(CO)CC[C@]3(C)[C@H](CC[C@@H]4[C@@]5(C)C=CC(=O)C(C)(C)[C@@H]5CC[C@]43C)[C@@H]12` [Compound 30], the IC50 (A-375 (melanoma)) is reported as 61 µM, the IC50 (SK-MEL-2 (melanoma)) is reported as > 75 µM and the IC50 (Daoy) is reported as > 75 µM. For the same molecule, the IC50 (CEM) was 16 µM, the IC50 [1] was > 75 µM and the IC50 (LN-229 (glioblastoma)) was 68 µM. The IC50 (HT-29 (colon carcinoma)) was 67 µM, the IC50 (MCF-7 (breast carcinoma)) was > 75 µM and the IC50 (H-146) was 66 µM.

With `C=C(C=O)[C@@H]1CC[C@]2(COC3CCCCO3)CC[C@]3(C)[C@H](CC[C@@H]4[C@@]5(C)C=CC(=O)C(C)(C)[C@@H]5CC[C@]43C)[C@@H]12` (some centres unmarked) [Compound 34] the IC50 (A-375 (melanoma)) was 1 µM, the IC50 (SK-MEL-2 (melanoma)) was 2 µM and the IC50 (Daoy) was 6 µM. For the same molecule, the IC50 (CEM) was 1 µM, the IC50 [1] was 2 µM and the IC50 (LN-229 (glioblastoma)) was 6 µM. It also gave an IC50 (HT-29 (colon carcinoma)) of 2 µM, an IC50 (MCF-7 (breast carcinoma)) of 8 µM and an IC50 (H-146) of 2 µM.

`C=C(C=O)[C@@H]1CC[C@]2(CO)CC[C@]3(C)[C@H](CC[C@@H]4[C@@]5(C)C=CC(=O)C(C)(C)[C@@H]5CC[C@]43C)[C@@H]12` [Compound 35] showed an IC50 (A-375 (melanoma)) of 6 µM, an IC50 (SK-MEL-2 (melanoma)) of 14 µM and an IC50 (Daoy) of 17 µM. The IC50 (CEM) was 2 µM, the IC50 [1] was 6 µM and the IC50 (LN-229 (glioblastoma)) was 58 µM. It also gave an IC50 (HT-29 (colon carcinoma)) of 8 µM, an IC50 (MCF-7 (breast carcinoma)) of 32 µM and an IC50 (H-146) of 5 µM.
